Assay results from PubChem BioAssay (NCI).
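Five compound concentrations were applied to cells in 96-well plates for 48 hours; endpoints were derived by simple linear interpolation of the resulting dose-response curve. Abbreviation: GI50, concentration required for 50% inhibition of growth. The concentration for full growth arrest is given as TGI.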

Tests used:
Assay in all cases: NCI tumour cell line growth inhibition, 48 h
786-0 renal = system: 786-0 renal
A498 renal = system: A498 renal
A549 NSCLC = system: A549 NSCLC
ACHN renal = system: ACHN renal
BT-549 breast = system: BT-549 breast
CAKI-1 renal = system: CAKI-1 renal
COLO 205 colon = system: COLO 205 colon
DU-145 prostate = system: DU-145 prostate
EKVX NSCLC = system: EKVX NSCLC
HCC-2998 colon = system: HCC-2998 colon
HCT-116 colon = system: HCT-116 colon
HCT-15 colon = system: HCT-15 colon
HL-60(TB) leukemia = system: HL-60(TB) leukemia
HOP-62 NSCLC = system: HOP-62 NSCLC
HOP-92 NSCLC = system: HOP-92 NSCLC
HS 578T breast = system: HS 578T breast
HT29 colon = system: HT29 colon
IGROV1 ovarian = system: IGROV1 ovarian
K-562 leukemia = system: K-562 leukemia
KM12 colon = system: KM12 colon
LOX IMVI melanoma = system: LOX IMVI melanoma
M14 melanoma = system: M14 melanoma
MALME-3M melanoma = system: MALME-3M melanoma
MCF7 breast = system: MCF7 breast
MDA-MB-231 breast = system: MDA-MB-231 breast
MDA-MB-435 = system: MDA-MB-435
MOLT-4 leukemia = system: MOLT-4 leukemia
NCI-H226 lung = system: NCI-H226 lung
NCI-H23 lung = system: NCI-H23 lung
NCI-H460 lung = system: NCI-H460 lung
NCI-H522 lung = system: NCI-H522 lung
NCI/ADR-RES ovarian = system: NCI/ADR-RES ovarian
OVCAR-3 ovarian = system: OVCAR-3 ovarian
OVCAR-4 ovarian = system: OVCAR-4 ovarian
OVCAR-5 ovarian = system: OVCAR-5 ovarian
OVCAR-8 ovarian = system: OVCAR-8 ovarian
PC-3 prostate = system: PC-3 prostate
RPMI-8226 leukemia = system: RPMI-8226 leukemia
RXF 393 renal = system: RXF 393 renal
SF-268 CNS = system: SF-268 CNS
SF-295 CNS = system: SF-295 CNS
SF-539 CNS = system: SF-539 CNS
SK-MEL-2 melanoma = system: SK-MEL-2 melanoma
SK-MEL-28 melanoma = system: SK-MEL-28 melanoma
SK-MEL-5 melanoma = system: SK-MEL-5 melanoma
SK-OV-3 ovarian = system: SK-OV-3 ovarian
SN12C renal = system: SN12C renal
SNB-19 CNS = system: SNB-19 CNS
SNB-75 CNS = system: SNB-75 CNS
SR leukemia = system: SR leukemia
SW-620 colon = system: SW-620 colon
T-47D breast = system: T-47D breast
TK-10 renal = system: TK-10 renal
U251 CNS = system: U251 CNS
UACC-257 melanoma = system: UACC-257 melanoma
UACC-62 melanoma = system: UACC-62 melanoma
UO-31 renal = system: UO-31 renal

Compound: Cc1cc(I)cc(CNCCN2CCOCC2)c1O
- GI50 (786-0 renal): 36.9 µM
- TGI (786-0 renal): > 100 µM
- GI50 (A498 renal): > 100 µM
- TGI (A498 renal): > 100 µM
- GI50 (A549 NSCLC): > 100 µM
- TGI (A549 NSCLC): > 100 µM
- GI50 (ACHN renal): > 100 µM
- TGI (ACHN renal): > 100 µM
- GI50 (BT-549 breast): 15.4 µM
- TGI (BT-549 breast): 61.3 µM
- GI50 (CAKI-1 renal): > 100 µM
- TGI (CAKI-1 renal): > 100 µM
- GI50 (COLO 205 colon): > 100 µM
- TGI (COLO 205 colon): > 100 µM
- GI50 (DU-145 prostate): 26.3 µM
- TGI (DU-145 prostate): > 100 µM
- GI50 (EKVX NSCLC): 24.3 µM
- TGI (EKVX NSCLC): > 100 µM
- GI50 (HCC-2998 colon): 43.9 µM
- TGI (HCC-2998 colon): > 100 µM
- GI50 (HCT-116 colon): 37.2 µM
- TGI (HCT-116 colon): > 100 µM
- GI50 (HCT-15 colon): > 100 µM
- TGI (HCT-15 colon): > 100 µM
- GI50 (HL-60(TB) leukemia): > 100 µM
- TGI (HL-60(TB) leukemia): > 100 µM
- GI50 (HOP-62 NSCLC): 29.4 µM
- TGI (HOP-62 NSCLC): > 100 µM
- GI50 (HOP-92 NSCLC): 59.8 µM
- TGI (HOP-92 NSCLC): > 100 µM
- GI50 (HS 578T breast): > 100 µM
- TGI (HS 578T breast): > 100 µM
- GI50 (HT29 colon): > 100 µM
- TGI (HT29 colon): > 100 µM
- GI50 (IGROV1 ovarian): 67 µM
- TGI (IGROV1 ovarian): > 100 µM
- GI50 (K-562 leukemia): 87.5 µM
- TGI (K-562 leukemia): > 100 µM
- GI50 (KM12 colon): 86.8 µM
- TGI (KM12 colon): > 100 µM
- GI50 (LOX IMVI melanoma): > 100 µM
- TGI (LOX IMVI melanoma): > 100 µM
- GI50 (M14 melanoma): 26.9 µM
- TGI (M14 melanoma): > 100 µM
- GI50 (MALME-3M melanoma): > 100 µM
- TGI (MALME-3M melanoma): > 100 µM
- GI50 (MCF7 breast): > 100 µM
- TGI (MCF7 breast): > 100 µM
- GI50 (MDA-MB-231 breast): > 100 µM
- TGI (MDA-MB-231 breast): > 100 µM
- GI50 (MDA-MB-435): > 100 µM
- TGI (MDA-MB-435): > 100 µM
- GI50 (MOLT-4 leukemia): > 100 µM
- TGI (MOLT-4 leukemia): > 100 µM
- GI50 (NCI-H226 lung): > 100 µM
- TGI (NCI-H226 lung): > 100 µM
- GI50 (NCI-H23 lung): 27.5 µM
- TGI (NCI-H23 lung): > 100 µM
- GI50 (NCI-H460 lung): 52.8 µM
- TGI (NCI-H460 lung): > 100 µM
- GI50 (NCI-H522 lung): 92.8 µM
- TGI (NCI-H522 lung): > 100 µM
- GI50 (NCI/ADR-RES ovarian): 12.5 µM
- TGI (NCI/ADR-RES ovarian): > 100 µM
- GI50 (OVCAR-3 ovarian): > 100 µM
- TGI (OVCAR-3 ovarian): > 100 µM
- GI50 (OVCAR-4 ovarian): > 100 µM
- TGI (OVCAR-4 ovarian): > 100 µM
- GI50 (OVCAR-5 ovarian): 59.8 µM
- TGI (OVCAR-5 ovarian): > 100 µM
- GI50 (OVCAR-8 ovarian): > 100 µM
- TGI (OVCAR-8 ovarian): > 100 µM
- GI50 (PC-3 prostate): > 100 µM
- TGI (PC-3 prostate): > 100 µM
- GI50 (RPMI-8226 leukemia): > 100 µM
- TGI (RPMI-8226 leukemia): > 100 µM
- GI50 (RXF 393 renal): 48.5 µM
- TGI (RXF 393 renal): > 100 µM
- GI50 (SF-268 CNS): 93.2 µM
- TGI (SF-268 CNS): > 100 µM
- GI50 (SF-295 CNS): 36 µM
- TGI (SF-295 CNS): > 100 µM
- GI50 (SF-539 CNS): 37.2 µM
- TGI (SF-539 CNS): > 100 µM
- GI50 (SK-MEL-2 melanoma): > 100 µM
- TGI (SK-MEL-2 melanoma): > 100 µM
- GI50 (SK-MEL-28 melanoma): > 100 µM
- TGI (SK-MEL-28 melanoma): > 100 µM
- GI50 (SK-MEL-5 melanoma): 67.1 µM
- TGI (SK-MEL-5 melanoma): > 100 µM
- GI50 (SK-OV-3 ovarian): > 100 µM
- TGI (SK-OV-3 ovarian): > 100 µM
- GI50 (SN12C renal): > 100 µM
- TGI (SN12C renal): > 100 µM
- GI50 (SNB-19 CNS): > 100 µM
- TGI (SNB-19 CNS): > 100 µM
- GI50 (SNB-75 CNS): 75.6 µM
- TGI (SNB-75 CNS): > 100 µM
- GI50 (SR leukemia): 90.2 µM
- TGI (SR leukemia): > 100 µM
- GI50 (SW-620 colon): > 100 µM
- TGI (SW-620 colon): > 100 µM
- GI50 (T-47D breast): 84.8 µM
- TGI (T-47D breast): > 100 µM
- GI50 (TK-10 renal): > 100 µM
- TGI (TK-10 renal): > 100 µM
- GI50 (U251 CNS): > 100 µM
- TGI (U251 CNS): > 100 µM
- GI50 (UACC-257 melanoma): > 100 µM
- TGI (UACC-257 melanoma): > 100 µM
- GI50 (UACC-62 melanoma): > 100 µM
- TGI (UACC-62 melanoma): > 100 µM
- GI50 (UO-31 renal): 67.8 µM
- TGI (UO-31 renal): > 100 µM
